Source: patent US20260034088A1, “SULFOPROPANOIC ACID DERIVATIVES FOR TREATING NEURODEGENERATIVE DISORDERS” (Alzheon, Inc., priority 2018, published 2026)
Where “and” joins values, the source holds several entries; their conditions need not be identical. Equal values may be shown once.

Assays:
[1] = Brain penetration of oral 3-SPA in male SD rats (brain, CSF, plasma); assay type: in vivo, Sprague-Dawley rats; details: oral 30 mg/kg
Description: A separate group of animals was dosed orally at 30 mg/kg and terminal brain, CSF and plasma samples were collected at 1, 2, 6, and 24 hr (3 animals for each time point) for bioanalyses of 3-SPA in brain and CSF, and to estimate brain penetration relative to plasma concentrations. The in-life study was performed at Agilux Laboratories (Worcester, MA) following quality standards in line with Good Laboratory Practice. Bioanalyses of rat plasma, CSF and brain was preformed using LC-MS/MS at Nextcea. Prior to processing rat brains for bioanalysis, the brains were perfused to remove pooled blood. Pharmacokinetic data analyses were conducted using Winnonlin Professional v5.0.1 (Pharsight, Mountain View, CA).
The plasma concentration of a single dose of 3-SPA, dissolved in saline as a clear solution, administered orally and intravenously to rats at a dose level of 30 mg/kg and 10 mg/kg, respectively, are shown in FIG. 9. Brain, CSF and corresponding plasma levels after a single oral dose of dose of 30 mg/kg of 3-SPA at 1, 2, 6, and 24 hr are shown in FIG. 10. Mean PK curves were used for calculation of pharmacokinetic parameters.

[2] = molecular target: T1, recombinant human Aβ42 peptide (Homo sapiens, UniProt P05067); test: Ion mobility mass spectrometry (IMS MS) anti-Aβ42 oligomer activity; assay type: biochemical; details: for inhibition of formation of Aβ42 oligomers: after 24 hours in vitro
T1 construct: recombinant human Aβ42 peptide; purchased BioLegend 843801
Description: The conditions used for mass spectrometry, using a Waters Synapt G2-S, were as follows: positive polarity in sensitivity mode, capillary=2.5 kV, nebulizer=2 mbar, source temperature=80° C., desolvation temperature=60° C., sample cone setting=35 V, source offset setting=60 V, and mass range=500 to 4000 m/z. These conditions were maintained throughout the study to ensure consistency of the data and to avoid influencing the detection of oligomers due to preferential ionization conditions.
Samples were directly infused into the mass spectrometer at a flow rate of 10 μL/min using a Protea PM-1000 Syringe Pump and Hamilton 1 mL Syringe. The data acquisition of the amyloid peptide was performed using a Waters Synapt G2-S quadrupole time of flight mass spectrometer (Q-TOF MS) with traveling wave ion mobility (Waters Corp., Milford, MA). The data were acquired using the systems sensitivity mode to allow for the detection of the less abundant oligomers. Samples were infused at room temperature. The IMS MS studies were conducted at Protea, Inc. (Morgantown, WV).
1 mg of recombinant human Aβ42 peptide from BioLegend (99% purity, cat #843801) was reconstituted in 200 μL of Fisher Optima LC/MS grade water (cat #W6-1) and vortexed vigorously for 2 minutes to solubilize the peptide creating a 5 mg/mL solution. Samples were then diluted to a final concentration of 22 pmol/μL prior to incubation. The sample mixtures were then incubated at room temperature for 0, 4 and 24 hours. After the acquisition of incubated samples was completed, the raw data were analyzed using the Waters MassLynx v2.4 suite with DriftScover v2.7 to visualize drift times for the peptide.
Aβ42 species characterization using IMS MS was performed by direct infusion at 22 pmol/μL in water. The peptide was prepared in water to maintain the native state conformation of the peptide and ion mobility data acquisition was performed to detect and characterize the conformational changes of the native state monomer and any oligomers that may have formed during the incubation.
The data acquisition for Aβ42 peptide was performed using a Waters Synapt G2-S quadrupole time of flight mass spectrometer (Q-TOF MS) with traveling wave ion mobility (Waters Corp., Milford, MA). The data were acquired using the systems sensitivity mode to allow for the detection of the less abundant oligomers. Samples were infused at room temperature as above.
1 mg of 3-SPA was reconstituted in 1 mL of Fisher Optima LC/MS grade water (cat #W6-1) and vortexed vigorously for 2 minutes until completely dissolved. The sample was then diluted to create 220 pmol/μL, and […] solutions to perform a 100-fold, and 1,000-fold molar excess for the binding experiments with Aβ42 peptide. […]

T1 sequence (P05067 672-713 limits assumed): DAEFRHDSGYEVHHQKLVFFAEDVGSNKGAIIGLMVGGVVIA

Row | Compound | Brain/Plasma (AUC %) [1] | Aβ42 oligomer species detected (not inhibited) ([2]; 4 hr incubation, Aβ42:compound 1:1000) | Aβ42 oligomer species detected (not inhibited) ([2]; 24 hours incubation, 1,000-fold excess of compound) | inhibition of formation of Aβ42 oligomers [2]
1 | O=C(O)CCS(=O)(=O)O [Compound 3-SPA, 3-sulfopropanoic acid] | 25% and 25.3% | dimers, trimers and pentamers | Only pentamers were detected | Near complete prevention of formation of Aβ42 oligomers except for pentamers
2 | NCCCS(=O)(=O)O [Tramiprosate, 3-amino-1-propanesulfonic acid, reference compound] | – | – | – | complete inhibition
